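Protocol summary: plate cells (96-well), add compound at 5 concentrations, incubate 48 h, interpolate endpoints linearly. TGI is the concentration that stops growth completely.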
Tests used:
Assay in all cases: NCI anticancer screen, dose series, 48 h
786-0 renal = test system: 786-0 renal
A498 renal = test system: A498 renal
A549 NSCLC = test system: A549 NSCLC
ACHN renal = test system: ACHN renal
BT-549 breast = test system: BT-549 breast
CAKI-1 renal = test system: CAKI-1 renal
CCRF-CEM leukemia = test system: CCRF-CEM leukemia
COLO 205 colon = test system: COLO 205 colon
DMS 114 small cell lung = test system: DMS 114 small cell lung
DMS 273 small cell lung = test system: DMS 273 small cell lung
DU-145 prostate = test system: DU-145 prostate
EKVX NSCLC = test system: EKVX NSCLC
HCC-2998 colon = test system: HCC-2998 colon
HCT-116 colon = test system: HCT-116 colon
HCT-15 colon = test system: HCT-15 colon
HL-60(TB) leukemia = test system: HL-60(TB) leukemia
HOP-18 NSCLC = test system: HOP-18 NSCLC
HOP-62 NSCLC = test system: HOP-62 NSCLC
HOP-92 NSCLC = test system: HOP-92 NSCLC
HS 578T breast = test system: HS 578T breast
HT29 colon = test system: HT29 colon
IGROV1 ovarian = test system: IGROV1 ovarian
K-562 leukemia = test system: K-562 leukemia
KM12 colon = test system: KM12 colon
KM20L2 colon = test system: KM20L2 colon
LOX IMVI melanoma = test system: LOX IMVI melanoma
LXFL 529 NSCLC = test system: LXFL 529 NSCLC
M14 melanoma = test system: M14 melanoma
M19-MEL melanoma = test system: M19-MEL melanoma
MALME-3M melanoma = test system: MALME-3M melanoma
MDA-MB-231 breast = test system: MDA-MB-231 breast
MDA-MB-435 = test system: MDA-MB-435
MDA-N = test system: MDA-N
MOLT-4 leukemia = test system: MOLT-4 leukemia
NCI-H226 lung = test system: NCI-H226 lung
NCI-H23 lung = test system: NCI-H23 lung
NCI-H460 lung = test system: NCI-H460 lung
NCI-H522 lung = test system: NCI-H522 lung
NCI/ADR-RES ovarian = test system: NCI/ADR-RES ovarian
OVCAR-3 ovarian = test system: OVCAR-3 ovarian
OVCAR-4 ovarian = test system: OVCAR-4 ovarian
OVCAR-5 ovarian = test system: OVCAR-5 ovarian
OVCAR-8 ovarian = test system: OVCAR-8 ovarian
PC-3 prostate = test system: PC-3 prostate
RPMI-8226 leukemia = test system: RPMI-8226 leukemia
RXF 393 renal = test system: RXF 393 renal
SF-268 CNS = test system: SF-268 CNS
SF-295 CNS = test system: SF-295 CNS
SF-539 CNS = test system: SF-539 CNS
SK-MEL-2 melanoma = test system: SK-MEL-2 melanoma
SK-MEL-28 melanoma = test system: SK-MEL-28 melanoma
SK-MEL-5 melanoma = test system: SK-MEL-5 melanoma
SK-OV-3 ovarian = test system: SK-OV-3 ovarian
SN12C renal = test system: SN12C renal
SNB-19 CNS = test system: SNB-19 CNS
SNB-75 CNS = test system: SNB-75 CNS
SNB-78 CNS = test system: SNB-78 CNS
SR leukemia = test system: SR leukemia
SW-620 colon = test system: SW-620 colon
T-47D breast = test system: T-47D breast
TK-10 renal = test system: TK-10 renal
U251 CNS = test system: U251 CNS
UACC-257 melanoma = test system: UACC-257 melanoma
UACC-62 melanoma = test system: UACC-62 melanoma
UO-31 renal = test system: UO-31 renal
XF 498 CNS = test system: XF 498 CNS
DLD-1 colon = test system: DLD-1 colon
RXF-631 renal = test system: RXF-631 renal

With `CC(=O)OC(CCC1(C)OC1COc1ccc(CCNC(=O)C=C(C)C)cc1)C(C)(C)OC(C)=O` (stereo not drawn) the TGI (786-0 renal) was > 100 µM, the TGI (A498 renal) was > 100 µM and the TGI (A549 NSCLC) was > 100 µM. The TGI (ACHN renal) was > 100 µM, the TGI (BT-549 breast) was 25.4 µM and the TGI (CAKI-1 renal) was > 100 µM. The TGI (CCRF-CEM leukemia) was > 92.7 µM, the TGI (COLO 205 colon) was > 92.1 µM and the TGI (DMS 114 small cell lung) was 48.7 µM. The TGI (DMS 273 small cell lung) was > 100 µM, the TGI (DU-145 prostate) was > 100 µM and the TGI (EKVX NSCLC) was > 100 µM. The TGI (HCC-2998 colon) was > 100 µM, the TGI (HCT-116 colon) was > 100 µM and the TGI (HCT-15 colon) was > 100 µM. For the same molecule, the TGI (HL-60(TB) leukemia) was > 56.7 µM, the TGI (HOP-18 NSCLC) was > 100 µM and the TGI (HOP-62 NSCLC) was > 100 µM. The TGI (HOP-92 NSCLC) was > 100 µM, the TGI (HS 578T breast) was > 100 µM and the TGI (HT29 colon) was > 100 µM. For the same molecule, the TGI (IGROV1 ovarian) was > 100 µM, the TGI (K-562 leukemia) was > 100 µM and the TGI (KM12 colon) was 78.4 µM. The TGI (KM20L2 colon) was > 100 µM, the TGI (LOX IMVI melanoma) was > 100 µM and the TGI (LXFL 529 NSCLC) was > 100 µM. For the same molecule, the TGI (M14 melanoma) was > 57.6 µM, the TGI (M19-MEL melanoma) was > 100 µM and the TGI (MALME-3M melanoma) was > 100 µM. For the same molecule, the TGI (MDA-MB-231 breast) was > 100 µM, the TGI (MDA-MB-435) was 40.4 µM and the TGI (MDA-N) was 51.9 µM. For the same molecule, the TGI (MOLT-4 leukemia) was 39.1 µM, the TGI (NCI-H226 lung) was > 100 µM and the TGI (NCI-H23 lung) was > 100 µM. For the same molecule, the TGI (NCI-H460 lung) was > 100 µM, the TGI (NCI-H522 lung) was > 100 µM and the TGI (NCI/ADR-RES ovarian) was 47.9 µM. The TGI (OVCAR-3 ovarian) was > 100 µM, the TGI (OVCAR-4 ovarian) was > 100 µM and the TGI (OVCAR-5 ovarian) was > 100 µM. The TGI (OVCAR-8 ovarian) was > 100 µM, the TGI (PC-3 prostate) was > 100 µM and the TGI (RPMI-8226 leukemia) was 60.7 µM. For the same molecule, the TGI (RXF 393 renal) was > 31.6 µM, the TGI (SF-268 CNS) was > 100 µM and the TGI (SF-295 CNS) was > 100 µM. The TGI (SF-539 CNS) was > 100 µM, the TGI (SK-MEL-2 melanoma) was > 100 µM and the TGI (SK-MEL-28 melanoma) was > 100 µM. The TGI (SK-MEL-5 melanoma) was 15.6 µM, the TGI (SK-OV-3 ovarian) was > 100 µM and the TGI (SN12C renal) was > 100 µM. For the same molecule, the TGI (SNB-19 CNS) was > 100 µM, the TGI (SNB-75 CNS) was 98.1 µM and the TGI (SNB-78 CNS) was > 100 µM. For the same molecule, the TGI (SR leukemia) was > 74.4 µM, the TGI (SW-620 colon) was > 100 µM and the TGI (T-47D breast) was > 100 µM. The TGI (TK-10 renal) was > 100 µM, the TGI (U251 CNS) was > 100 µM and the TGI (UACC-257 melanoma) was 27.3 µM. The TGI (UACC-62 melanoma) was > 100 µM, the TGI (UO-31 renal) was > 100 µM and the TGI (XF 498 CNS) was 86.3 µM.
In the case of `C=CCCC1(C)CCCNC1=S` (stereo not drawn), the TGI (A498 renal) is reported as > 100 µM, the TGI (A549 NSCLC) is reported as > 100 µM and the TGI (ACHN renal) is reported as > 100 µM. The TGI (CCRF-CEM leukemia) was > 100 µM, the TGI (COLO 205 colon) was > 100 µM and the TGI (DLD-1 colon) was > 100 µM. For the same molecule, the TGI (DMS 114 small cell lung) was > 100 µM, the TGI (DMS 273 small cell lung) was > 100 µM and the TGI (EKVX NSCLC) was > 100 µM. The TGI (HCC-2998 colon) was > 100 µM, the TGI (HCT-116 colon) was > 100 µM and the TGI (HCT-15 colon) was > 100 µM. For the same molecule, the TGI (HL-60(TB) leukemia) was > 100 µM, the TGI (HOP-18 NSCLC) was > 100 µM and the TGI (HOP-62 NSCLC) was > 100 µM. The TGI (HOP-92 NSCLC) was > 100 µM, the TGI (HT29 colon) was > 100 µM and the TGI (IGROV1 ovarian) was > 100 µM. For the same molecule, the TGI (K-562 leukemia) was > 100 µM, the TGI (KM12 colon) was > 100 µM and the TGI (KM20L2 colon) was > 100 µM. For the same molecule, the TGI (LOX IMVI melanoma) was > 100 µM, the TGI (M14 melanoma) was > 100 µM and the TGI (MALME-3M melanoma) was > 100 µM. For the same molecule, the TGI (MOLT-4 leukemia) was > 100 µM, the TGI (NCI-H226 lung) was > 100 µM and the TGI (NCI-H23 lung) was > 100 µM. The TGI (NCI-H460 lung) was > 100 µM, the TGI (OVCAR-3 ovarian) was > 100 µM and the TGI (OVCAR-4 ovarian) was > 100 µM. For the same molecule, the TGI (OVCAR-5 ovarian) was > 100 µM, the TGI (OVCAR-8 ovarian) was > 100 µM and the TGI (RPMI-8226 leukemia) was > 100 µM. The TGI (RXF 393 renal) was > 100 µM, the TGI (SF-295 CNS) was > 100 µM and the TGI (SF-539 CNS) was > 100 µM. The TGI (SK-MEL-2 melanoma) was > 100 µM, the TGI (SK-MEL-28 melanoma) was > 100 µM and the TGI (SK-MEL-5 melanoma) was > 100 µM. The TGI (SK-OV-3 ovarian) was > 100 µM, the TGI (SN12C renal) was > 100 µM and the TGI (SNB-19 CNS) was > 100 µM. The TGI (SNB-75 CNS) was > 100 µM, the TGI (SR leukemia) was > 100 µM and the TGI (SW-620 colon) was > 100 µM. For the same molecule, the TGI (TK-10 renal) was > 100 µM, the TGI (U251 CNS) was > 100 µM and the TGI (UACC-257 melanoma) was > 100 µM. For the same molecule, the TGI (UACC-62 melanoma) was > 100 µM, the TGI (UO-31 renal) was > 100 µM and the TGI (XF 498 CNS) was > 100 µM.
`CCOc1ccc(N=Cc2c3ccccc3nc3ccccc23)cc1` was tested, and the TGI (786-0 renal) was > 100 µM, the TGI (A498 renal) was > 100 µM and the TGI (A549 NSCLC) was > 100 µM. The TGI (ACHN renal) was > 100 µM, the TGI (CAKI-1 renal) was > 100 µM and the TGI (CCRF-CEM leukemia) was 24 µM. For the same molecule, the TGI (COLO 205 colon) was > 100 µM, the TGI (DLD-1 colon) was > 100 µM and the TGI (DMS 114 small cell lung) was > 100 µM. The TGI (DMS 273 small cell lung) was > 100 µM, the TGI (EKVX NSCLC) was > 100 µM and the TGI (HCC-2998 colon) was > 100 µM. The TGI (HCT-15 colon) was > 100 µM, the TGI (HL-60(TB) leukemia) was 77.2 µM and the TGI (HOP-18 NSCLC) was > 100 µM. The TGI (HOP-62 NSCLC) was > 100 µM, the TGI (HOP-92 NSCLC) was > 100 µM and the TGI (HT29 colon) was > 100 µM. The TGI (IGROV1 ovarian) was > 100 µM, the TGI (K-562 leukemia) was > 100 µM and the TGI (KM12 colon) was 84.7 µM. For the same molecule, the TGI (KM20L2 colon) was > 100 µM, the TGI (LOX IMVI melanoma) was > 100 µM and the TGI (LXFL 529 NSCLC) was > 100 µM. For the same molecule, the TGI (M14 melanoma) was > 100 µM, the TGI (M19-MEL melanoma) was > 100 µM and the TGI (MALME-3M melanoma) was > 100 µM. For the same molecule, the TGI (MOLT-4 leukemia) was > 100 µM, the TGI (NCI-H226 lung) was > 100 µM and the TGI (NCI-H23 lung) was > 100 µM. The TGI (NCI-H460 lung) was > 100 µM, the TGI (NCI-H522 lung) was > 100 µM and the TGI (OVCAR-3 ovarian) was > 100 µM. The TGI (OVCAR-4 ovarian) was > 100 µM, the TGI (OVCAR-8 ovarian) was > 100 µM and the TGI (RPMI-8226 leukemia) was > 100 µM. For the same molecule, the TGI (RXF 393 renal) was > 100 µM, the TGI (RXF-631 renal) was > 100 µM and the TGI (SF-268 CNS) was > 100 µM. The TGI (SF-295 CNS) was > 100 µM, the TGI (SF-539 CNS) was > 100 µM and the TGI (SK-MEL-2 melanoma) was > 100 µM. The TGI (SK-MEL-28 melanoma) was > 100 µM, the TGI (SK-MEL-5 melanoma) was > 100 µM and the TGI (SK-OV-3 ovarian) was > 100 µM. For the same molecule, the TGI (SN12C renal) was > 100 µM, the TGI (SNB-19 CNS) was > 100 µM and the TGI (SNB-75 CNS) was > 100 µM. For the same molecule, the TGI (SNB-78 CNS) was > 100 µM, the TGI (SW-620 colon) was > 100 µM and the TGI (TK-10 renal) was > 100 µM. For the same molecule, the TGI (U251 CNS) was > 100 µM, the TGI (UACC-257 melanoma) was > 100 µM and the TGI (UACC-62 melanoma) was > 100 µM. For the same molecule, the TGI (UO-31 renal) was > 100 µM and the TGI (XF 498 CNS) was > 100 µM.
